The source of these data is US10766890B2, “Hepatitis B core protein modulators” (Assembly Biosciences, Inc., priority 2015, dated 2020).

One data set concerns AD38 cells. Put plainly: Viability of AD38 cells, Promega CellTiter-Glo. Conditions: 10 μM compound, 6 days, CellTiter-Glo luminescence, controls being 100%. The data set is classed as cell-based. The protocol:
(§1) Example 63: Assay Measuring Activity of Compounds on Viral Production in and on Viability of AD38 Cells
(§2) AD38 cells were then re-suspended with 10 mL of Treatment Medium and counted. Wells of a collagen coated 96-well NUNC microtiter plate were seeded at 50,000/well in 180 μL of Treatment Medium, and 20 μL of in treatment media with either 10% DMSO (Control) or a 10× solution of compound in 10% DMSO was added. Plates were incubated for 6 days at 37° C.
At the end of compound treatment period cell viability was assessed using a Promega CellTiter-Glo protocol. All supernatant was removed the previously treated 96-well microtiter plate, and 50 μL Tetracycline-free treatment medium (DMEM/F12 (1:1), 1×Pen/step (cat#: 30-002-CL, Mediatech, Inc), with 2% FBS, Tet-system approved (cat#: 631106, Clontech), and 1% DMSO was added back to each well. Another 50 μL of CellTiter-Glo reagent solution (Promega, G7573) was then added at room temperature and the contents mixed for 2 minutes on an orbital shaker to induce cell lysis. This was followed by incubation at room temperature for 10 minutes to stabilize the luminescent signal. The luminescence was recorded for 0.2 seconds per well on a Tecan multimode platereader (Infinite M1000 pro). The luminescent signal from each well was normalized against that of untreated (DMSO) control wells. All results in Table 3 were reported with percent viability (with controls being 100%).
For orientation: Cellular ATP, detected with luciferase, serves as a proxy for viable cell number.

The next data set concerns HBV. Kind of data set: Viral load production in AD38 cells, quantitative PCR of the core sequence in supernatant. In kind it is cell-based. Conditions: 10 μM compound, 6 days at 37° C., supernatant qPCR vs DMSO control; for activity at 10 µM: Hepatitis B virus, 144 h, read-out: AD38 Viral Load (%) (VL with cmpd/VL in DMSO control) at 10 μM. The method, then: as §1, §2
Viral load production was assayed by quantitative PCR of the core sequence. […] The PCR mixture was incubated at 45° C. for 5 minutes, then 95° C. for 10 min, followed by 40 cycles of 10 seconds at 95° C. and 20 seconds at 60° C. Viral load was quantitated against known standards by using ViiA™ 7 Software. Viral load in the supernatant from wells with treated cells were compared against viral load in supernatant from DMSO control wells (≥3 per plate).
Background: Real-time PCR tracks product formation cycle by cycle.

`CN(C)CCOc1cccc(-c2ccc(CNC(=O)c3ccc4c(c3)NC(=O)c3ccccc3O4)cc2)c1` [Compound 717]: the “AD38 Viability Normalized Result (cmpd/DMSO %) at 10 μM” value in the data set with AD38 cells is 0%. Moreover, in the data set on HBV, the activity at 10 µM amounted to 170%.

With `O=C(NCc1ccc(-c2ccc(O)cc2)cc1)c1ccc2c(c1)NC(=O)c1ccccc1O2` [Compound 719], in the data set on AD38 cells, the “AD38 Viability Normalized Result (cmpd/DMSO %) at 10 μM” value is reported as 110%. The activity at 10 µM in the data set with HBV is 4.6%.

Consider `O=C(NCc1ccc(-c2cccc(O)c2)cc1)c1ccc2c(c1)NC(=O)c1ccccc1O2` [Compound 720], for which the “AD38 Viability Normalized Result (cmpd/DMSO %) at 10 μM” value in the data set on AD38 cells was 102%. In addition, in the data set with HBV, the activity at 10 µM is 48.5%.

Turning to `O=C(NCc1ccc(-c2ccc(O)cc2)c(Cl)c1)c1ccc2c(c1)NC(=O)c1ccccc1O2` [Compound 721], in the data set with AD38 cells, the “AD38 Viability Normalized Result (cmpd/DMSO %) at 10 μM” value stood at 29%. Besides, the activity at 10 µM with HBV amounted to 9.7%.

As to `O=C(NCc1ccc(-c2ccc(O)cc2Cl)cc1)c1ccc2c(c1)NC(=O)c1ccccc1O2` [Compound 722], the “AD38 Viability Normalized Result (cmpd/DMSO %) at 10 μM” value in the data set with AD38 cells was 29%. Further, the activity at 10 µM in the data set with HBV came out at 8.8%.

On to `NCc1ccc(-c2ccc(CNC(=O)c3ccc4c(c3)NC(=O)c3ccccc3O4)cc2)cc1` [Compound 726], for which, in the data set with AD38 cells, the “AD38 Viability Normalized Result (cmpd/DMSO %) at 10 μM” value is 1%. Moreover, the “AD38 Viral Load (%) (VL with cmpd/VL in DMSO control) at 10 μM” value in the data set with HBV was 6.1%.

With `N#Cc1cccc(-c2ccc(CNC(=O)c3ccc4c(c3)NC(=O)c3ccccc3O4)cc2)c1` [Compound 728-A], the “AD38 Viability Normalized Result (cmpd/DMSO %) at 10 μM” value with AD38 cells was determined as 120%. In addition, the activity at 10 µM in the data set on HBV was determined as 66.8%.

Regarding `O=C(NCc1ccc(-c2ccc3[nH]cnc3c2)cc1)c1ccc2c(c1)NC(=O)c1ccccc1O2` [Compound 729], the “AD38 Viability Normalized Result (cmpd/DMSO %) at 10 μM” value in the data set on AD38 cells came to 97%. The activity at 10 µM in the data set on HBV came out at 16.3%.

With `O=C(NCc1ccc(-c2ccc3[nH]ccc3c2)cc1)c1ccc2c(c1)NC(=O)c1ccccc1O2` [Compound 730], the “AD38 Viability Normalized Result (cmpd/DMSO %) at 10 μM” value with AD38 cells is listed as 101%. Besides, the activity at 10 µM in the data set on HBV was 24.2%.

Regarding `O=C(NCc1cccc(Cc2cccc(O)c2)c1)c1ccc2c(c1)NC(=O)c1ccccc1O2` [Compound 740], in the data set on AD38 cells, the “AD38 Viability Normalized Result (cmpd/DMSO %) at 10 μM” value is 103%. Besides, in the data set with HBV, the activity at 10 µM was found to be 23.8%.

For the compound `O=C(NCc1cccc(Cc2ccc(O)cc2)c1)c1ccc2c(c1)NC(=O)c1ccccc1O2` [Compound 741, N-(3-(4-hydroxybenzyl)benzyl)-11-oxo-10,11-dihydrodibenzo[b,f][1,4]oxazepine-8-carboxamide], the “AD38 Viability Normalized Result (cmpd/DMSO %) at 10 μM” value in the data set with AD38 cells came to 111%. Besides, in the data set with HBV, the activity at 10 µM is 40.1%.

For `COc1ccc(Cc2cccc(CNC(=O)c3ccc4c(c3)NC(=O)c3ccccc3O4)c2)cc1` [Compound 741-A], the “AD38 Viability Normalized Result (cmpd/DMSO %) at 10 μM” value in the data set with AD38 cells came out at 89%. In the data set on HBV, the activity at 10 µM was 42.4%.

As for `O=C(NCc1cccc(Sc2cccc(O)c2)c1)c1ccc2c(c1)NC(=O)c1ccccc1O2` [Compound 742, N-(3-((3-hydroxyphenyl)thio)benzyl)-11-oxo-10,11-dihydrodibenzo[b,f][1,4]oxazepine-8-carboxamide], in the data set with AD38 cells, the “AD38 Viability Normalized Result (cmpd/DMSO %) at 10 μM” value is recorded as 89%. For the same compound, the activity at 10 µM in the data set with HBV amounted to 12.7%.

For the compound `COc1cccc(Sc2cccc(CNC(=O)c3ccc4c(c3)NC(=O)c3ccccc3O4)c2)c1` [Compound 742-A, N-(3-((3-methoxyphenyl)thio)benzyl)-11-oxo-10,11-dihydrodibenzo[b,f][1,4]oxazepine-8-carboxamide], in the data set on AD38 cells, the “AD38 Viability Normalized Result (cmpd/DMSO %) at 10 μM” value was 107%. Further, in the data set on HBV, the activity at 10 µM was 2.6%.

Consider `O=C(NCc1cccc(Sc2ccc(O)cc2)c1)c1ccc2c(c1)NC(=O)c1ccccc1O2` [Compound 743, N-(3-((4-hydroxyphenyl)thio)benzyl)-11-oxo-10,11-dihydrodibenzo[b,f][1,4]oxazepine-8-carboxamide], for which the “AD38 Viability Normalized Result (cmpd/DMSO %) at 10 μM” value in the data set on AD38 cells is recorded as 102%. Moreover, in the data set with HBV, the activity at 10 µM was 6.8%.

As for `COc1ccc(Sc2cccc(CNC(=O)c3ccc4c(c3)NC(=O)c3ccccc3O4)c2)cc1` [Compound 743-A], in the data set on AD38 cells, the “AD38 Viability Normalized Result (cmpd/DMSO %) at 10 μM” value was 91%. Moreover, the activity at 10 µM in the data set on HBV worked out at 22.7%.
